This note sets out measurements from patent EP0176999A2, “Amino acid derivatives, process for their preparation and pharmaceutical compositions” (BOEHRINGER INGELHEIM KG, priority 1984, dated 1986).

Test [1] has as its system Angiotensin I. Nature of the test: Lowering of blood pressure raised by i.v. angiotensin I in the anaesthetised rat. Format: in vivo, Ratte. The conditions noted are these: anaesthetised rat, 0,3 mg/kg i.v.; blood pressure raised beforehand by 0,1 mg/kg Angiotensin I i.v. How it is done: So erzeugt N-[N^α-(3-Phenyl-2-S-mercaptopropanoyl)-S-lysyl]-thiazolidin-4-S-carbonsäure an der narkotisierten Ratte in einer Dosierung von 0,3 mg/kg i.v. eine lang anhaltende Blutdrucksenkung von 60 %, wenn man vorher durch eine i.v.-Gabe von 0,1 mg/kg Angiotensin I den Blutdruck steigert; beim N-[N^a-(3-Phenyl-2-S-mercaptopropanoyl)S-lysyl]-S-prolin liegt der Wert bei gleichem Test bei 57 %.

In test [2] the target is T1, Angiotensin I Converting Enzym (Oryctolagus cuniculus, UniProt P12822).
T1 sequence (P12822 34-1310): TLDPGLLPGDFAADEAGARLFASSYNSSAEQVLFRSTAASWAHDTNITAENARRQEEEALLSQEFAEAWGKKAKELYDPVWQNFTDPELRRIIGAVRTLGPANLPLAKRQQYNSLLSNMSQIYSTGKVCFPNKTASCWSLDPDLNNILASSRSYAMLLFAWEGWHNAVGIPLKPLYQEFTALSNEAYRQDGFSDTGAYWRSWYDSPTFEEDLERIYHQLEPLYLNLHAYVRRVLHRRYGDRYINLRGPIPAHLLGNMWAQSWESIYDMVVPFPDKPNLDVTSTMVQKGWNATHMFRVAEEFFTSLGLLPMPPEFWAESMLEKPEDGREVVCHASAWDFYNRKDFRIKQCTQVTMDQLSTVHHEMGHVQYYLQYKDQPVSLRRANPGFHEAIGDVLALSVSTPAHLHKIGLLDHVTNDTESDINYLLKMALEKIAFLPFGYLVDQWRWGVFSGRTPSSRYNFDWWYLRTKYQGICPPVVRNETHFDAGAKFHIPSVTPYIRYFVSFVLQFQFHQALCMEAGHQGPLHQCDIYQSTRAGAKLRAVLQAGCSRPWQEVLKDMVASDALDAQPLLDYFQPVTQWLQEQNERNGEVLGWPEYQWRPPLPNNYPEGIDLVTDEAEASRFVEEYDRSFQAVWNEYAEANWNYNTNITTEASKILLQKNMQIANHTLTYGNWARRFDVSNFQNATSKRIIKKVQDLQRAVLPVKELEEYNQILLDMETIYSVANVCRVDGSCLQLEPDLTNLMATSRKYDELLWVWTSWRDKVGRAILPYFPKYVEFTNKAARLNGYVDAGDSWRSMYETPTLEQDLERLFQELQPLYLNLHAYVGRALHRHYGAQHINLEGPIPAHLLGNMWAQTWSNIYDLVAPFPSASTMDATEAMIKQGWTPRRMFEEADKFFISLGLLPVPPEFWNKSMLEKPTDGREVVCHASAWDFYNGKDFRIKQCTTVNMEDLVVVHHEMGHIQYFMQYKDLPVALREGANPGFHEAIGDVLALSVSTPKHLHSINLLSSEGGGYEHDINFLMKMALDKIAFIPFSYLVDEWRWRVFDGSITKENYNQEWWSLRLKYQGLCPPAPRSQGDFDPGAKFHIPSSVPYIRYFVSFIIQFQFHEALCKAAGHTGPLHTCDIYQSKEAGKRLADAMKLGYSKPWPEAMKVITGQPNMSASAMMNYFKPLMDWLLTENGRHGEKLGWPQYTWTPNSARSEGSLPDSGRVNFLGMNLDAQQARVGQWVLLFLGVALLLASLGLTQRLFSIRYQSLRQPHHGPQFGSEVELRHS
Put plainly: Inhibition of angiotensin I converting enzyme in vitro. The test is classed as biochemical. The conditions noted are these: inhibitor concentration at which the enzyme is 50 % inhibited (Cheung, Cushman method), read-out: Hemmaktivität IC50. The text has this: N-[N^α-(3-Phenyl-2-S-mercaptopropanoyl)-S-lysyl]-thiazolidin-4-S-carbonsäure zeigt am Angiotensin I Converting Enzym in vitro eine Hemmaktivität IC50= 4,6 . 10^-9 [M]; die IC50 beträgt beim N-[N^αa-(3-Phenpl-2-S-mercaptopropanoyl)-S-lysyl]-S-prolin 2,7 . 10-^8 [M].
Als IC50 wird hierbei diejenige Hemmstoffkonzentration bezeichnet, bei der das Angiotensin I Converting Enzym zu 50 % gehemmt wird (s. H. S. Cheung, D. W. Cushman, Biochem. Biophys. Acta 293, 451 (1973)).

For orientation: IC50 means the concentration at which inhibition is half-maximal. As for “N-[N^α-(3-Phenyl-2-S-mercaptopropanoyl)-S-lysyl]-thiazolidin-4-S-carbonsäure [Beispiel 3]”, in test [1], the “lang anhaltende Blutdrucksenkung” value turned out to be 60%. In addition, in test [2], the IC50 worked out at 4.6 nM.

With `NCCCC[C@H](NC(=O)[C@@H](S)Cc1ccccc1)C(=O)N1CCC[C@H]1C(=O)O` [Beispiel 11], the “lang anhaltende Blutdrucksenkung” value in test [1] is reported as 57%.
